# From PubChem BioAssay AID194 (DTP/NCI, 2004)
# Several values for one entry are separate records, joined by “and”; a condition that tells them apart may be missing. Identical values can stand only once. Results filed as inconclusive are left out.
# Test system: BDF1 mice, B16 melanoma s.c., survival/tumor T/C
# Test: NCI In Vivo Anticancer Drug Screen. Data for tumor model B16 Melanoma (subcutaneous) in B6D2F1 (BDF1) mice
# Protocol: The antitumor activity of compounds was measured in mice bearing transplantable tumors. Survival or tumor size were measured and the results are expressed as the measurement made in the treated group (T) divided by the measurement made in the vehicle treated control group (C). The tumor model used in this assay is B16 Melanoma (subcutaneous) in B6D2F1 (BDF1) mice
# [1] = endpoint: median survival time, dose: 3.0 mg/kg/injection, schedule: Q01DX009 (ip), vehicle: saline, higher = longer survival
# [2] = endpoint: median survival time, dose: 1000.0 mg/kg/injection, schedule: Q01DX001 (ip), vehicle: saline, higher = longer survival
smiles,measurement,setting,value
O=CC(NC(=O)N(CCCl)N=O)C(O)C(O)C(O)CO (stereo unspecified),T/C,[1],115 % of control
same,T/C,"endpoint: median survival time, dose: 3.3 mg/kg/injection, schedule: Q01DX009 (ip), vehicle: saline, higher = longer survival",115 % of control
same,T/C,"endpoint: median survival time, dose: 4.5 mg/kg/injection, schedule: Q01DX009 (ip), vehicle: saline, higher = longer survival",112 % of control
same,T/C,"endpoint: median survival time, dose: 4.9 mg/kg/injection, schedule: Q01DX009 (ip), vehicle: saline, higher = longer survival",102 % of control
same,T/C,"endpoint: median survival time, dose: 6.8 mg/kg/injection, schedule: Q01DX009 (ip), vehicle: saline, higher = longer survival",89 % of control
same,T/C,"endpoint: median survival time, dose: 7.4 mg/kg/injection, schedule: Q01DX009 (ip), vehicle: saline, higher = longer survival",100 % of control
same,T/C,"endpoint: median survival time, dose: 10.0 mg/kg/injection, schedule: Q01DX009 (ip), vehicle: saline, higher = longer survival",122 % of control
same,T/C,"endpoint: median survival time, dose: 12.0 mg/kg/injection, schedule: Q04DX003 (ip), vehicle: saline, higher = longer survival",112 % of control
same,T/C,"endpoint: median survival time, dose: 13.0 mg/kg/injection, schedule: Q01DX001 (ip), vehicle: saline, higher = longer survival",118 % of control
same,T/C,"endpoint: median survival time, dose: 16.0 mg/kg/injection, schedule: Q01DX001 (ip), vehicle: saline, higher = longer survival",112 % of control
same,T/C,"endpoint: median survival time, dose: 18.0 mg/kg/injection, schedule: Q04DX003 (ip), vehicle: saline, higher = longer survival",106 % of control
same,T/C,"endpoint: median survival time, dose: 20.0 mg/kg/injection, schedule: Q01DX001 (ip), vehicle: saline, higher = longer survival",96 % of control
same,T/C,"endpoint: median survival time, dose: 24.0 mg/kg/injection, schedule: Q01DX001 (ip), vehicle: saline, higher = longer survival",102 % of control
same,T/C,"endpoint: median survival time, dose: 27.0 mg/kg/injection, schedule: Q04DX003 (ip), vehicle: saline, higher = longer survival",108 % of control
same,T/C,"endpoint: median survival time, dose: 36.0 mg/kg/injection, schedule: Q01DX001 (ip), vehicle: saline, higher = longer survival",112 % of control
CN(N=O)C(=O)N[C@@H](C=O)[C@@H](O)[C@H](O)[C@H](O)CO,T/C,"endpoint: median survival time, dose: 20.0 mg/kg/injection, schedule: Q01DX009 (ip), vehicle: other, higher = longer survival",113 % of control
same,T/C,"endpoint: median survival time, dose: 40.0 mg/kg/injection, schedule: Q01DX009 (ip), vehicle: other, higher = longer survival",123 % of control
same,T/C,"endpoint: median survival time, dose: 80.0 mg/kg/injection, schedule: Q01DX009 (ip), vehicle: other, higher = longer survival",106 % of control
O=C(NP(=O)(N1CC1)N1CC1)c1cc(I)ccc1I,T/C,"endpoint: median survival time, dose: 1.0 mg/kg/injection, schedule: Q02DX009 (ip), vehicle: saline with Tween-80, higher = longer survival",96 % of control
same,T/C,"endpoint: median survival time, dose: 1.0 mg/kg/injection, schedule: Q02DX009 (ip), vehicle: saline, higher = longer survival",103 % of control
same,T/C,"endpoint: median survival time, dose: 4.0 mg/kg/injection, schedule: Q01DX001 (oral), vehicle: saline with Tween-80, higher = longer survival",98 % of control
same,T/C,"endpoint: median survival time, dose: 4.0 mg/kg/injection, schedule: Q02DX009 (ip), vehicle: saline with Tween-80, higher = longer survival",95 % of control
same,T/C,"endpoint: median survival time, dose: 4.0 mg/kg/injection, schedule: Q02DX009 (ip), vehicle: saline, higher = longer survival",180 % of control
same,T/C,"endpoint: median survival time, dose: 8.0 mg/kg/injection, schedule: Q01DX001 (oral), vehicle: saline with Tween-80, higher = longer survival",92 % of control
same,T/C,"endpoint: median survival time, dose: 8.0 mg/kg/injection, schedule: Q02DX009 (ip), vehicle: saline with Tween-80, higher = longer survival",88 % of control
same,T/C,"endpoint: median survival time, dose: 8.0 mg/kg/injection, schedule: Q02DX009 (ip), vehicle: saline, higher = longer survival",153 % of control
same,T/C,"endpoint: median survival time, dose: 16.0 mg/kg/injection, schedule: Q01DX001 (oral), vehicle: saline with Tween-80, higher = longer survival",91 % of control
same,T/C,"endpoint: median survival time, dose: 16.0 mg/kg/injection, schedule: Q02DX009 (ip), vehicle: saline with Tween-80, higher = longer survival",117 % of control
same,T/C,"endpoint: median survival time, dose: 16.0 mg/kg/injection, schedule: Q02DX009 (ip), vehicle: saline, higher = longer survival",180 % of control
same,T/C,"endpoint: median survival time, dose: 32.0 mg/kg/injection, schedule: Q01DX001 (oral), vehicle: saline with Tween-80, higher = longer survival",93 % of control
same,T/C,"endpoint: median survival time, dose: 32.0 mg/kg/injection, schedule: Q02DX009 (ip), vehicle: saline, higher = longer survival",97 % of control
same,T/C,"endpoint: median survival time, dose: 64.0 mg/kg/injection, schedule: Q01DX001 (oral), vehicle: saline with Tween-80, higher = longer survival",105 % of control
same,T/C,"endpoint: median survival time, dose: 512.0 mg/kg/injection, schedule: Q01DX001 (oral), vehicle: saline with Tween-80, higher = longer survival",88 % of control
COC(=O)[C@@]12OC[C@]34[C@H]([C@@H](O)[C@@H]1O)[C@@]1(C)CC(=O)C(O)=C(C)[C@@H]1C[C@H]3OC(=O)[C@H](OC(=O)/C=C(\C)C(C)C)[C@@H]24,T/C,"endpoint: median survival time, dose: 0.25 mg/kg/injection, schedule: Q01DX009 (ip), vehicle: saline with Tween-80, higher = longer survival",109 % of control
same,T/C,"endpoint: median survival time, dose: 0.5 mg/kg/injection, schedule: Q01DX009 (ip), vehicle: saline with Tween-80, higher = longer survival",96 % of control
same,T/C,"endpoint: median survival time, dose: 1.0 mg/kg/injection, schedule: Q01DX009 (ip), vehicle: saline with Tween-80, higher = longer survival",103 % of control
same,T/C,"endpoint: median survival time, dose: 1.1 mg/kg/injection, schedule: Q01DX009 (ip), vehicle: saline with Tween-80, higher = longer survival",121 % of control
same,T/C,"endpoint: median survival time, dose: 1.3 mg/kg/injection, schedule: Q04DX003 (ip), vehicle: saline with Tween-80, higher = longer survival",116 % of control
same,T/C,"endpoint: median survival time, dose: 2.0 mg/kg/injection, schedule: Q01DX001 (ip), vehicle: saline with Tween-80, higher = longer survival",103 % of control
same,T/C,"endpoint: median survival time, dose: 2.0 mg/kg/injection, schedule: Q04DX003 (ip), vehicle: saline with Tween-80, higher = longer survival",112 % of control
NC(CS/C(Cl)=C/Cl)C(=O)O (stereo unspecified),T/C,"endpoint: median survival time, dose: 1.25 mg/kg/injection, schedule: Q01DX009 (ip), vehicle: saline, higher = longer survival",102 % of control
same,T/C,"endpoint: median survival time, dose: 2.5 mg/kg/injection, schedule: Q01DX009 (ip), vehicle: saline, higher = longer survival",95 % of control
same,T/C,"endpoint: median survival time, dose: 5.0 mg/kg/injection, schedule: Q01DX009 (ip), vehicle: saline, higher = longer survival",97 % of control and 106 % of control
same,T/C,"endpoint: median survival time, dose: 18.0 mg/kg/injection, schedule: Q01DX009 (ip), vehicle: saline, higher = longer survival",101 % of control
OC(CCl)CN1CC[N+]2(CC1)CC[N+]1(CCN(CC(O)CCl)CC1)CC2 (stereo unspecified),T/C,"endpoint: median survival time, dose: 134.0 mg/kg/injection, schedule: Q01DX007 (ip), vehicle: saline, higher = longer survival",162 % of control
same,T/C,"endpoint: median survival time, dose: 200.0 mg/kg/injection, schedule: Q01DX009 (ip), vehicle: saline, higher = longer survival",112 % of control
same,T/C,"endpoint: median survival time, dose: 300.0 mg/kg/injection, schedule: Q01DX007 (ip), vehicle: saline, higher = longer survival",173 % of control
same,T/C,"endpoint: median survival time, dose: 300.0 mg/kg/injection, schedule: Q01DX009 (ip), vehicle: saline, higher = longer survival",161 % of control
same,T/C,"endpoint: median survival time, dose: 670.0 mg/kg/injection, schedule: Q01DX001 (ip), vehicle: saline, higher = longer survival",108 % of control
same,T/C,[2],92 % of control
same,T/C,"endpoint: median survival time, dose: 1500.0 mg/kg/injection, schedule: Q01DX001 (ip), vehicle: saline, higher = longer survival",120 % of control
NC(=O)c1ccc[n+](Cc2c(Cl)cccc2Cl)c1,T/C,"endpoint: median survival time, dose: 0.75 mg/kg/injection, schedule: Q01DX009 (ip), vehicle: saline, higher = longer survival",106 % of control
same,T/C,[1],98 % of control
same,T/C,"endpoint: median survival time, dose: 6.0 mg/kg/injection, schedule: Q01DX009 (ip), vehicle: saline, higher = longer survival",102 % of control and 117 % of control
same,T/C,"endpoint: median survival time, dose: 12.0 mg/kg/injection, schedule: Q01DX009 (ip), vehicle: saline, higher = longer survival",106 % of control and 114 % of control
Nc1ncn(C2OC(CO)C(O)C2O)c(=O)n1 (stereo unspecified),T/C,"endpoint: median survival time, dose: 0.2 mg/kg/injection, schedule: Q01DX009 (ip), vehicle: saline, higher = longer survival",100 % of control
same,T/C,"endpoint: median survival time, dose: 0.4 mg/kg/injection, schedule: Q01DX009 (ip), vehicle: saline, higher = longer survival",104 % of control
same,T/C,"endpoint: median survival time, dose: 0.5 mg/kg/injection, schedule: Q01DX009 (ip), vehicle: saline, higher = longer survival",87 % of control
same,T/C,"endpoint: median survival time, dose: 0.75 mg/kg/injection, schedule: Q01DX009 (ip), vehicle: Klucel (hydroxypropylcellulose) (HPC), higher = longer survival",111 % of control
same,T/C,"endpoint: median survival time, dose: 0.8 mg/kg/injection, schedule: Q01DX009 (ip), vehicle: saline, higher = longer survival",123 % of control
same,T/C,"endpoint: median survival time, dose: 1.0 mg/kg/injection, schedule: Q01DX009 (ip), vehicle: saline, higher = longer survival",105 % of control
same,T/C,"endpoint: median survival time, dose: 1.6 mg/kg/injection, schedule: Q01DX009 (ip), vehicle: saline, higher = longer survival",106 % of control
same,T/C,"endpoint: median survival time, dose: 3.2 mg/kg/injection, schedule: Q01DX009 (ip), vehicle: saline, higher = longer survival",114 % of control and 116 % of control
same,T/C,"endpoint: median tumor weight (est.), dose: 0.75 mg/kg/injection, schedule: Q01DX009 (ip), vehicle: saline, higher = larger tumour",87 % of control and 96 % of control
same,T/C,"endpoint: median tumor weight (est.), dose: 1.5 mg/kg/injection, schedule: Q01DX009 (ip), vehicle: saline, higher = larger tumour",41 % of control and 48 % of control
same,T/C,"endpoint: median tumor weight (est.), dose: 3.0 mg/kg/injection, schedule: Q01DX009 (ip), vehicle: saline, higher = larger tumour",52 % of control and 57 % of control
same,T/C,"endpoint: median tumor weight (est.), dose: 6.0 mg/kg/injection, schedule: Q01DX009 (ip), vehicle: saline, higher = larger tumour",21 % of control and 26 % of control
O=[N+]([O-])c1nccn1CC(O)CO (stereo unspecified),T/C,[2],91 % of control
same,T/C,"endpoint: median survival time, dose: 2500.0 mg/kg/injection, schedule: Q01DX001 (ip), vehicle: saline, higher = longer survival",85 % of control
CCN1C=C/C(=C/c2cc3scc(-c4ccccc4)[n+]3c3ccccc23)c2ccccc21,T/C,"endpoint: median survival time, dose: 0.15 mg/kg/injection, schedule: Q01DX009 (ip), vehicle: Klucel (hydroxypropylcellulose) (HPC), higher = longer survival",107 % of control
CC1(C)N=C(N)N=C(N)N1c1ccc(OCCCNC(=O)Nc2cccc(S(=O)(=O)F)c2)c(Cl)c1,T/C,"endpoint: median survival time, dose: 50.0 mg/kg/injection, schedule: Q01DX009 (ip), vehicle: saline, higher = longer survival",115 % of control
same,T/C,"endpoint: median survival time, dose: 100.0 mg/kg/injection, schedule: Q01DX009 (ip), vehicle: saline, higher = longer survival",91 % of control
CC(NSc1ccccc1[N+](=O)[O-])C(=O)O (stereo unspecified),T/C,"endpoint: median survival time, dose: 12.5 mg/kg/injection, schedule: Q01DX009 (ip), vehicle: saline with Tween-80, higher = longer survival",109 % of control
same,T/C,"endpoint: median survival time, dose: 25.0 mg/kg/injection, schedule: Q01DX009 (ip), vehicle: saline with Tween-80, higher = longer survival",106 % of control
same,T/C,"endpoint: median survival time, dose: 50.0 mg/kg/injection, schedule: Q01DX009 (ip), vehicle: saline with Tween-80, higher = longer survival",89 % of control
same,T/C,"endpoint: median survival time, dose: 100.0 mg/kg/injection, schedule: Q01DX009 (ip), vehicle: saline with Tween-80, higher = longer survival",122 % of control
